From ChEMBL document CHEMBL1130318, “Inhibition of stromelysin-1 (MMP-3) by P1'-biphenylylethyl carboxyalkyl dipeptides” (J Med Chem, 1997)

Experiments:
[1] = target: Stromelysin-1 (Homo sapiens, UniProt P08254)
Description: Inhibition of human stromelysin-1 (Matrix metalloprotease-3)

[2] = target: 72 kDa type IV collagenase (Homo sapiens, UniProt P08253)
Description: Inhibition of gelatinase A (Matrix metalloprotease-2)

[3] = system: Mus musculus; test: Effective dose for inhibition of MMP-3 mediated degradation of radiolabeled transferrin in the mouse pleural cavity (PLCAV) after 60 mpk oral dose of inhibitor.; assay type: functional
[4] = Clearance was measured in rat after administration of compound 20 mg/kg intravenously; assay type: ADME, organism-based; design: dose 20 mg/kg, route intravenous; settings: in vivo, iv
[5] = Percent oral bioavailability was measured in mouse after administration of compound 20 mg/kg perorally; assay type: ADME, organism-based; settings: in vivo
[6] = Plasma half-life was measured in rabbit after administration of compound 12 mg/kg intravenously; settings: iv
[7] = Volume distribution was measured in mouse after administration of compound 20 mg/kg intravenously; assay type: ADME, organism-based; design: dose 20 mg/kg, route intravenous; settings: in vivo, iv, read-out: Vdss
[8] = Plasma half-life was measured in rat after administration of compound 20 mg/kg intravenously; assay type: ADME, organism-based; design: dose 20 mg/kg, route intravenous; settings: iv
[9] = Clearance was measured in mouse after administration of compound 20 mg/kg intravenously; assay type: ADME, organism-based; design: dose 20 mg/kg, route intravenous; settings: in vivo, iv
[10] = Volume distribution was measured in rabbit after administration of compound 12 mg/kg intravenously; settings: in vivo, iv, read-out: Vdss
[11] = Percent oral bioavailability was measured in rat after administration of compound 20 mg/kg perorally; assay type: ADME, organism-based; settings: in vivo
[12] = Clearance was measured in rabbit after administration of compound 12 mg/kg intravenously; settings: in vivo, iv
[13] = Plasma half-life was measured in mouse after administration of compound 20 mg/kg intravenously; assay type: ADME, organism-based; design: dose 20 mg/kg, route intravenous; settings: iv
[14] = Volume distribution was measured in rat after administration of compound 20 mg/kg intravenously; assay type: ADME, organism-based; design: dose 20 mg/kg, route intravenous; settings: in vivo, iv, read-out: Vdss

Sequence of Stromelysin-1 (P08254 whole entry): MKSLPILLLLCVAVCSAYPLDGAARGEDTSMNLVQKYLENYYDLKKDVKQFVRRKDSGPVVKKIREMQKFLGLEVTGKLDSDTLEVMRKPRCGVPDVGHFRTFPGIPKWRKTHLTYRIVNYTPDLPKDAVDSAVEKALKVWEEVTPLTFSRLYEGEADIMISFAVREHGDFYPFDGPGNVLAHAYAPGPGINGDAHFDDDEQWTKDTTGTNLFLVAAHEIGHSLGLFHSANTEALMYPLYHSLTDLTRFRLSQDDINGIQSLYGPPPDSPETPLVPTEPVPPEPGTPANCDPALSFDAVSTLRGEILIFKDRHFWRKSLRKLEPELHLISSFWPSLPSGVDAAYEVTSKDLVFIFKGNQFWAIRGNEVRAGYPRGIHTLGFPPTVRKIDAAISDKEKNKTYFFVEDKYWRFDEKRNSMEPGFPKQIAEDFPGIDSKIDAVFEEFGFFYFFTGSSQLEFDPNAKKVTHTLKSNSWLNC
Sequence of 72 kDa type IV collagenase (P08253 whole entry): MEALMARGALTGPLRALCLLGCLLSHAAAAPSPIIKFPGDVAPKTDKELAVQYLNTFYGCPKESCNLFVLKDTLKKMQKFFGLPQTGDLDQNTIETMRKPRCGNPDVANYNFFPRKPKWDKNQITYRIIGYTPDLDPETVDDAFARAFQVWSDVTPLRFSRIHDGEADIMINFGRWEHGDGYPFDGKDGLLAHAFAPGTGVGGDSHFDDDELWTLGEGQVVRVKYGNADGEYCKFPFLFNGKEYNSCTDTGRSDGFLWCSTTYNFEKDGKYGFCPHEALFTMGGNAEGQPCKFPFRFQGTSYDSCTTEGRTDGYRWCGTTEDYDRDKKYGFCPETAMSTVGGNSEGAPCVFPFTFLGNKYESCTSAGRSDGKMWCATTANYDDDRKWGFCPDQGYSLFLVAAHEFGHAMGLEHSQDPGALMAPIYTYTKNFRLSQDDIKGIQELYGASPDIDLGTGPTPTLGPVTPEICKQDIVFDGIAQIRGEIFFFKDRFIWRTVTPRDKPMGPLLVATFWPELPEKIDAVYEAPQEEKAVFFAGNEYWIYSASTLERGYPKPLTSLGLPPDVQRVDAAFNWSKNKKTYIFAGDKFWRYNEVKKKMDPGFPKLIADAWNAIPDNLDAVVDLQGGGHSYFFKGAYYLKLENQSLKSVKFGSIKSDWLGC

Ki [1] [nM]	Ki [2] [nM]	SMILES	also measured
12	100	CCCC[C@@H](C[C@@H](CCc1ccc(-c2ccc(Cl)cc2Cl)cc1)C(=O)N[C@H](C(=O)NC)C(C)(C)C)C(=O)O	
11	61	CCCC[C@@H](C[C@@H](CCc1ccc(-c2ccccc2F)cc1)C(=O)N[C@H](C(=O)NC)C(C)(C)C)C(=O)O	
4	150	CCCC[C@@H](C[C@@H](CCc1ccc(-c2ccc(F)cc2)cc1)C(=O)N[C@H](C(=O)Nc1ccccc1)C(C)(C)C)C(=O)O	
52	30	CCCC[C@@H](C[C@@H](CCc1ccc(-c2ccc([S+](C)[O-])cc2)cc1)C(=O)N[C@H](C(=O)NC)C(C)(C)C)C(=O)O (some centres not stated)	
38		CC(C)C[C@H](NC(=O)[C@H](CCc1ccc(-c2ccc(F)cc2)cc1)C[C@H](C)C(=O)O)C(=O)Nc1ccccc1	
9400		CCCC[C@@H](C[C@@H](CCc1ccc(-c2ccccc2S(N)(=O)=O)cc1)C(=O)N[C@H](C(=O)NC)C(C)(C)C)C(=O)O	
3800	1500	CCCC[C@@H](C[C@@H](CCc1ccccc1)C(=O)N[C@H](C(=O)NC)C(C)(C)C)C(=O)O	
15	21	CCCC[C@@H](C[C@@H](CCc1cccc(-c2ccsc2)c1)C(=O)N[C@H](C(=O)NC)C(C)(C)C)C(=O)O	
12	49	CCCC[C@@H](C[C@@H](CCc1ccc(-c2cc3ccccc3[nH]2)cc1)C(=O)N[C@H](C(=O)NC)C(C)(C)C)C(=O)O	
1200	1300	CCCC[C@@H](C[C@@H](CCc1ccc(-c2c(C)cccc2C)cc1)C(=O)N[C@H](C(=O)NC)C(C)(C)C)C(=O)O	
10	17	CCCC[C@@H](C[C@@H](CCc1ccc(-c2ccccc2S(=O)(=O)NC(C)(C)C)cc1)C(=O)N[C@H](C(=O)NC)C(C)(C)C)C(=O)O	
2	25	CCCC[C@@H](C[C@@H](CCc1ccc(-c2ccc(F)cc2)cc1)C(=O)N[C@H](C(=O)Nc1ccncc1)C(C)(C)C)C(=O)O	
25	94	CCCC[C@@H](C[C@@H](CCc1ccc(-c2ccc(-c3ncc[nH]3)cc2)cc1)C(=O)N[C@H](C(=O)NC)C(C)(C)C)C(=O)O	
120		CCCC[C@@H](C[C@@H](CCc1ccc(-c2ccc3ccccc3c2)cc1)C(=O)N[C@H](C(=O)NC)C(C)(C)C)C(=O)O	
21	48	CCCC[C@@H](C[C@@H](CCc1ccc(-c2cccc(F)c2)cc1)C(=O)N[C@H](C(=O)NC)C(C)(C)C)C(=O)O	
95	1900	CCCC[C@@H](C[C@@H](CCc1ccc(C2CCCCCC2)cc1)C(=O)N[C@H](C(=O)NC)C(C)(C)C)C(=O)O	
15	16	CCCC[C@@H](C[C@@H](CCc1ccc(-c2ccc(C=O)cc2)cc1)C(=O)N[C@H](C(=O)NC)C(C)(C)C)C(=O)O	
5	13	CCCC[C@@H](C[C@@H](CCc1ccc(-c2ccc(SC)cc2)cc1)C(=O)N[C@H](C(=O)NC)C(C)(C)C)C(=O)O	
39	84	CCCC[C@@H](C[C@@H](CCc1ccc(-c2ccc(-c3ccccc3)cc2)cc1)C(=O)N[C@H](C(=O)NC)C(C)(C)C)C(=O)O	
82		CC(C)C[C@H](NC(=O)[C@H](CCc1ccc(-c2ccccc2)cc1)C[C@H](C)C(=O)O)C(=O)Nc1ccccc1	
1400	810	CCCC[C@@H](C[C@@H](CCc1ccc(C2CCCO2)cc1)C(=O)N[C@H](C(=O)NC)C(C)(C)C)C(=O)O (some centres not stated)	
37	39	CCCC[C@@H](C[C@@H](CCc1ccc(-c2ccc(C(F)(F)F)cc2)cc1)C(=O)N[C@H](C(=O)NC)C(C)(C)C)C(=O)O	
1400	16	CCCC[C@@H](C[C@@H](CCc1ccc(Cc2ccccc2)cc1)C(=O)N[C@H](C(=O)Nc1ccccc1)C(C)(C)C)C(=O)O	
		CCCc1ccc(CC[C@H](C[C@H](C)C(=O)O)C(=O)N[C@@H](CC(C)C)C(=O)Nc2ccccc2)cc1	ED50 [3]: 32 mg/kg
690	580	CCCC[C@@H](C[C@@H](CCc1ccc(-c2ccc(C(=O)O)cc2)cc1)C(=O)N[C@H](C(=O)NC)C(C)(C)C)C(=O)O	

Ki [1] [nM]	Ki [2] [nM]	SMILES	also measured
		CCCc1ccc(CC[C@H](N[C@H](C)C(=O)O)C(=O)N[C@@H](CC(C)C)C(=O)Nc2ccccc2)cc1	ED50 [3]: 65 mg/kg
1500	2400	CCCC[C@@H](C[C@@H](CCc1cccc(-c2ccccc2)c1)C(=O)N[C@H](C(=O)NC)C(C)(C)C)C(=O)O	
65	760	CCCC[C@@H](C[C@@H](CCc1ccc(/C=C/c2ccccc2)cc1)C(=O)N[C@H](C(=O)NC)C(C)(C)C)C(=O)O	
74	210	CCCC[C@@H](C[C@@H](CCc1ccc(OCc2ccccc2)cc1)C(=O)N[C@H](C(=O)NC)C(C)(C)C)C(=O)O	
140	47	CCCC[C@@H](C[C@@H](CCc1ccc(CCC)cc1)C(=O)N[C@H](C(=O)NC)C(C)(C)C)C(=O)O	
9	14	CCCC[C@@H](C[C@@H](CCc1ccc(-c2ccc(C#N)cc2)cc1)C(=O)N[C@H](C(=O)NC)C(C)(C)C)C(=O)O	
49	380	CCCC[C@@H](C[C@@H](CCc1ccc(CCc2ccccc2)cc1)C(=O)N[C@H](C(=O)NC)C(C)(C)C)C(=O)O	
11	17	CCCC[C@@H](C[C@@H](CCc1ccc(-c2ccc(Br)cc2)cc1)C(=O)N[C@H](C(=O)NC)C(C)(C)C)C(=O)O	
21	19	CCCC[C@@H](C[C@@H](CCc1ccc(-c2ccc(S(C)(=O)=O)cc2)cc1)C(=O)N[C@H](C(=O)NC)C(C)(C)C)C(=O)O	
10	17	CCCC[C@@H](C[C@@H](CCc1ccc(-c2ccc(F)cc2)cc1)C(=O)N[C@H](C(=O)NC)C(C)(C)C)C(=O)O	clearance [4]: 1.3 mL/min/kg; bioavailability [5]: 78%; half-life [6]: 0.9 h; Vd [7]: 0.2 L/kg; half-life [8]: 4.4 h; clearance [9]: 1.1 mL/min/kg; Vd [10]: 0.2 L/kg; bioavailability [11]: 60%; clearance [12]: 7.6 mL/min/kg; half-life [13]: 2.7 h; Vd [14]: 0.32 L/kg
19	80	CCCC[C@@H](C[C@@H](CCc1ccc(-c2ccc(F)c(Cl)c2)cc1)C(=O)N[C@H](C(=O)NC)C(C)(C)C)C(=O)O	
24	38	CCCC[C@@H](C[C@@H](CCc1ccc(-c2ccc(C(N)=O)cc2)cc1)C(=O)N[C@H](C(=O)NC)C(C)(C)C)C(=O)O	
40	50	CCCC[C@@H](C[C@@H](CCc1ccc(-c2ccc(C(=O)N(C)C)cc2)cc1)C(=O)N[C@H](C(=O)NC)C(C)(C)C)C(=O)O	
31	32	CCCC[C@@H](C[C@@H](CCc1ccc(-c2ccc(C(=O)OC)cc2)cc1)C(=O)N[C@H](C(=O)NC)C(C)(C)C)C(=O)O	
2000	6900	CCCC[C@@H](C[C@@H](CCc1ccc(-c2cccc3ccccc23)cc1)C(=O)N[C@H](C(=O)NC)C(C)(C)C)C(=O)O	
1500	1600	CCCC[C@@H](C[C@@H](CCc1ccc(-c2cc(Cl)cc(Cl)c2)cc1)C(=O)N[C@H](C(=O)NC)C(C)(C)C)C(=O)O	
49	34	CCCC[C@@H](C[C@@H](CCc1ccc(-c2ccc(C(=O)NC)cc2)cc1)C(=O)N[C@H](C(=O)NC)C(C)(C)C)C(=O)O	
13	25	CCCC[C@@H](C[C@@H](CCc1ccc(-c2ccc(Cl)cc2)cc1)C(=O)N[C@H](C(=O)NC)C(C)(C)C)C(=O)O	
350	1800	CCCC[C@@H](C[C@@H](CCc1ccc(-c2ccc(-c3nnn[nH]3)cc2)cc1)C(=O)N[C@H](C(=O)NC)C(C)(C)C)C(=O)O	
11	22	CCCC[C@@H](C[C@@H](CCc1ccc(CCC)cc1)C(=O)N[C@H](C(=O)Nc1ccncc1)C(C)(C)C)C(=O)O	
13	21	CCCC[C@@H](C[C@@H](CCc1ccc(-c2ccc(OC)cc2)cc1)C(=O)N[C@H](C(=O)NC)C(C)(C)C)C(=O)O	
27	280	CCCC[C@@H](C[C@@H](CCc1ccc(-c2cccc(N)c2)cc1)C(=O)N[C@H](C(=O)Nc1ccccc1)C(C)(C)C)C(=O)O	
1100	3600	CCCC[C@@H](C[C@@H](CCc1ccc(-c2cccc(C(F)(F)F)c2)cc1)C(=O)N[C@H](C(=O)NC)C(C)(C)C)C(=O)O	
		CC(C)C[C@H](NC(=O)[C@H](CCc1ccccc1)N[C@H](C)C(=O)O)C(=O)Nc1ccccc1 [L-696418]	ED50 [3]: > 100 mg/kg
